From US6716883B1, “Composition useful to treat periodontal disease” (priority 1998, dated 2004)

Assays:
[1] = system: rat bone marrow cultures; experiment: Mineral levels in rat bone marrow cultures treated with BaP; type: cell-based; conditions: BaP at 10^−8M
[2] = system: rat bone marrow cultures; experiment: APA in rat bone marrow cultures treated with BaP; type: cell-based; conditions: increasing concentrations of BaP, ten-day old cultures
Protocol: In this experiment, the effects of the aryl hydrocarbon, benzo-a-pyrene (BaP) on the early events occurring during osteogenesis were determined. Ten-day old rat bone marrow cultures were treated with increasing concentrations of BaP. The effect of this treatment was monitored by APA as set out above.

Structure (SMILES): c1ccc2c(c1)cc1ccc3cccc4ccc2c1c34 [BaP, benzo-a-pyrene, reference compound]
- inhibition of mineral levels [1]: ≤ 90%
- inhibition of alkaline phosphatase [2]: increased inhibition of alkaline phosphatase with increasing BaP concentration
